Source: patent US9487519B2, “5,6-Dialkyl-7-aminotriazolopyrimidines, their preparation and their use for controlling harmful fungi, and compositions comprising these compounds” (BASF SE, priority 2004, dated 2016)

How the values were obtained:
Plasmopara viticola = experiment: Activity against Peronospora of grapevines caused by Plasmopara viticola (Use Example 1); assay type: in vivo; conditions: 250 ppm, potted vines sprayed to runoff, inoculated next day; untreated plants 95% infected
Description: The active compounds were prepared as a stock solution comprising 25 mg of active compound which was made up to 10 ml using a mixture of acetone and/or DMSO and the emulsifier Uniperol® EL (wetting agent having emulsifying and dispersing agent based on ethoxylated alkylphenols) in a ratio by volume of solvent/emulsifier of 99/1. The mixture was then made up to 100 ml with water. This stock solution was, using the solvent/emulsifier/water mixture described, diluted to the active compound concentration stated below.
Leaves of potted vines were sprayed to runoff point with an aqueous suspension having the concentration of active compound stated below. The next day, the undersides of the leaves were inoculated with an aqueous sporangia suspension of Plasmopara viticola. The vines were then initially placed in a water-vapor-saturated chamber at 24° C. for 48 hours and then in a greenhouse at temperatures between 20° C. and 30° C. for 5 days. After this time, the plants were once more placed in a humid chamber for 16 hours to promote the eruption of sporangiophores. The extent of the development of the infection on the undersides of the leaves was then determined visually.

Phytophthora infestans = assay type: in vivo; conditions: 250 ppm, potted tomato plants sprayed to runoff, infected next day, assessed after 6 days; untreated plants 100% infected

With `CCCCCCCCc1c(CC)nc2ncnn2c1N` [I-2, 7-amino-5-ethyl-6-octyl[1,2,4]triazolo[1,5-a]pyrimidine] the “infection on the undersides of the leaves, determined visually” value (Plasmopara viticola) was “no infection” and the “infection (late blight), determined visually” value (Phytophthora infestans) was “no infection”.
